Converted amounts (≈) assume the structure as drawn.
Tests used:
Type in all cases: cell-based
HIV-1/103-Asn = experiment: Inhibition of HIV-1 induced syncytium formation in CEM cells, RT mutant 103-Asn; settings: Human immunodeficiency virus 1, CCRF-CEM, 96 h, Table 2B, day 4, averages of 2 to 3 independent experiments, read-out: Antiviral Activity of Comparative Compounds EC50, 103-Asn
Description: (§1) CEM cells were obtained from the American Tissue Cell Culture Collection (Rockville, Md.). HIV-1(IIIB) was originally obtained from the culture supernatant of persistently HIV-1-infected H9 cells and was provided by R. C. Gallo and M. Popovic (National Cancer Institute, National Institutes of Health, Bethesda, Md.). […] 67: 5353-5359 (1993); HIV-1/Lys-138 ("Lys-138") was selected for resistance against TSAO-m^3T as described in Balzarini et al, Virology 192: 246-253 (1993) and Balzarini et al, Proc. Nat. Acad. Sci. USA 90: 6952-6956 (1993); HIV-1/181-Cys ("181-Cys") was selected for resistance against pyridinone L-697,661 as described in Balzarini et al, Virology 192: 246-253 (1993); and HIV-1/188-His ("188-His") was selected for resistance against HEPT as described in Balzarini et al, Mol. Pharmocol. 44: 694-701 (1993). 188-His was then further converted to HIV-1/188-Leu "188-Leu") upon further passage in cell culture in the absence of the HEPT.
(§2) CEM cells were suspended at ≈300,000 cells per ml of culture medium and infected with approximately 100 CCID50 (CCID50 being the 50% cell culture infective dose) of HIV-1(IIIB) or one of the HIV-1 RT mutant strains described above. Then 100 μl of the infected cell suspensions was added to 200 μl microtiter plate wells containing 100 μl of appropriate serial (5-fold) dilutions of the test compounds. The inhibitory effect of the test compounds on HIV-1 induced syncytium formation in CEM cells was examined microscopically on day 4 post infection.

HIV-1(IIIB) = experiment: Inhibition of HIV-1 induced syncytium formation in CEM cells, wild type; settings: Table 2B, WT = HIV-1(IIIB), day 4, averages of 2 to 3 independent experiments; for EC50: Human immunodeficiency virus 1, IIIB, CCRF-CEM, 96 h, read-out: Antiviral Activity of Comparative Compounds EC50, WT
Description: as §1, §2

HIV-1/188-Leu = experiment: Inhibition of HIV-1 induced syncytium formation in CEM cells, RT mutant 188-Leu; settings: Human immunodeficiency virus 1, CCRF-CEM, 96 h, Table 2B, day 4, averages of 2 to 3 independent experiments, read-out: Antiviral Activity of Comparative Compounds EC50, 188-Leu
Description: as §1, §2

HIV-1/106-Ala = experiment: Inhibition of HIV-1 induced syncytium formation in CEM cells, RT mutant 106-Ala; settings: Table 2B, day 4, averages of 2 to 3 independent experiments; for EC50: Human immunodeficiency virus 1, CCRF-CEM, 96 h, read-out: Antiviral Activity of Comparative Compounds EC50, 106-Ala
Description: as §1, §2

HIV-1/100-Ile = experiment: Inhibition of HIV-1 induced syncytium formation in CEM cells, RT mutant 100-Ile; settings: Table 2B, day 4, averages of 2 to 3 independent experiments; for EC50: Human immunodeficiency virus 1, CCRF-CEM, 96 h, read-out: Antiviral Activity of Comparative Compounds EC50, 100-Ile
Description: as §1, §2

HIV-1/181-Cys = experiment: Inhibition of HIV-1 induced syncytium formation in CEM cells, RT mutant 181-Cys; settings: Table 2B, day 4, averages of 2 to 3 independent experiments; for EC50: Human immunodeficiency virus 1, CCRF-CEM, 96 h, read-out: Antiviral Activity of Comparative Compounds EC50, 181-Cys
Description: as §1, §2

HIV-1/Lys-138 = experiment: Inhibition of HIV-1 induced syncytium formation in CEM cells, RT mutant 138-Lys; settings: Table 2B, day 4, averages of 2 to 3 independent experiments; for EC50: Human immunodeficiency virus 1, CCRF-CEM, 96 h, read-out: Antiviral Activity of Comparative Compounds EC50, 138-Lys
Description: as §1, §2

in vitro = settings: human, cem cells, CC50 (50% cytostatic concentration), Table 2B; CEM cell proliferation; averages of 2 to 3 independent experiments
Description: as §1
^b 50% cytostatic concentration (i.e., compound concentration require
to inhibit CEM cell proliferation by 50%)

## Cc1sccc1C(=S)Nc1ccc(Cl)c(OCC(=O)OC(C)(C)C)c1 [Compound 14]
HIV-1/103-Asn
  EC50: 0.12 µg/mL (≈ 0.302 µM)
HIV-1(IIIB)
  EC50: 0.067 µg/mL (≈ 0.168 µM)
HIV-1/188-Leu
  EC50: > 2 µg/mL
HIV-1/106-Ala
  EC50: 0.1 µg/mL (≈ 0.251 µM)
HIV-1/100-Ile
  EC50: 0.16 µg/mL (≈ 0.402 µM)
HIV-1/181-Cys
  EC50: 0.087 µg/mL (≈ 0.219 µM)
HIV-1/Lys-138
  EC50: 0.24 µg/mL (≈ 0.603 µM)
In vitro
  CC50: 2.1 µg/mL (≈ 5.28 µM)

## CCC1=C(C(=O)Nc2ccc(Cl)c(C=NOC(C)(C)C)c2)SCCO1 [Compound 15]
HIV-1/103-Asn
  EC50: 0.065 µg/mL (≈ 0.17 µM)
HIV-1(IIIB)
  EC50: 0.03 µg/mL (≈ 0.0783 µM)
HIV-1/188-Leu
  EC50: > 2 µg/mL
HIV-1/106-Ala
  EC50: 0.06 µg/mL (≈ 0.157 µM)
HIV-1/100-Ile
  EC50: 0.06 µg/mL (≈ 0.157 µM)
HIV-1/181-Cys
  EC50: 0.09 µg/mL (≈ 0.235 µM)
HIV-1/Lys-138
  EC50: 0.07 µg/mL (≈ 0.183 µM)
In vitro
  CC50: 11.4 µg/mL (≈ 29.8 µM)

## Cc1sccc1C(=S)Nc1ccc(Cl)c(C(=O)OC(C)C)c1 [Compound 16]
HIV-1/103-Asn
  EC50: 0.33 µg/mL (≈ 0.932 µM)
HIV-1(IIIB)
  EC50: 0.0041 µg/mL (≈ 0.0116 µM)
HIV-1/188-Leu
  EC50: > 2 µg/mL
HIV-1/106-Ala
  EC50: 0.077 µg/mL (≈ 0.218 µM)
HIV-1/100-Ile
  EC50: 0.15 µg/mL (≈ 0.424 µM)
HIV-1/181-Cys
  EC50: 0.1 µg/mL (≈ 0.283 µM)
HIV-1/Lys-138
  EC50: 0.03 µg/mL (≈ 0.0848 µM)
In vitro
  CC50: 5.9 µg/mL (≈ 16.7 µM)

## Cc1occc1C(=S)Nc1ccc(Cl)c(SCC(=O)OC(C)(C)C)c1 [Compound 17]
HIV-1/103-Asn
  EC50: 0.73 µg/mL (≈ 1.83 µM)
HIV-1(IIIB)
  EC50: 0.22 µg/mL (≈ 0.553 µM)
HIV-1/188-Leu
  EC50: ≥ 2 µg/mL
HIV-1/106-Ala
  EC50: 0.3 µg/mL (≈ 0.754 µM)
HIV-1/100-Ile
  EC50: 0.49 µg/mL (≈ 1.23 µM)
HIV-1/181-Cys
  EC50: 0.45 µg/mL (≈ 1.13 µM)
HIV-1/Lys-138
  EC50: 0.18 µg/mL (≈ 0.452 µM)
In vitro
  CC50: 7 µg/mL (≈ 17.6 µM)

## CC1=C(C(=O)Nc2ccc(Cl)c(C=NOC(C)(C)C)c2)SCCO1 [Compound 18]
HIV-1/103-Asn
  EC50: 0.33 µg/mL (≈ 0.895 µM)
HIV-1(IIIB)
  EC50: 0.014 µg/mL (≈ 0.038 µM)
HIV-1/188-Leu
  EC50: > 2 µg/mL
HIV-1/106-Ala
  EC50: 0.15 µg/mL (≈ 0.407 µM)
HIV-1/100-Ile
  EC50: 0.33 µg/mL (≈ 0.895 µM)
HIV-1/181-Cys
  EC50: 0.13 µg/mL (≈ 0.352 µM)
HIV-1/Lys-138
  EC50: 0.22 µg/mL (≈ 0.596 µM)
In vitro
  CC50: 8.5 µg/mL (≈ 23 µM)

## CC=CCOc1cc(NC(=S)c2ccn(C)c2C)ccc1Cl [Compound 19]
HIV-1/103-Asn
  EC50: ≥ 2 µg/mL
HIV-1(IIIB)
  EC50: 0.17 µg/mL (≈ 0.508 µM)
HIV-1/188-Leu
  EC50: > 2 µg/mL
HIV-1/106-Ala
  EC50: 0.4 µg/mL (≈ 1.19 µM)
HIV-1/100-Ile
  EC50: 0.85 µg/mL (≈ 2.54 µM)
HIV-1/181-Cys
  EC50: 0.13 µg/mL (≈ 0.388 µM)
HIV-1/Lys-138
  EC50: 0.6 µg/mL (≈ 1.79 µM)
In vitro
  CC50: 5.2 µg/mL (≈ 15.5 µM)

## Cc1sccc1C(=S)Nc1ccc(Cl)c(SCC(=O)OC(C)(C)C)c1 [Compound 20]
HIV-1/103-Asn
  EC50: 0.44 µg/mL (≈ 1.06 µM)
HIV-1(IIIB)
  EC50: 0.13 µg/mL (≈ 0.314 µM)
HIV-1/188-Leu
  EC50: > 2 µg/mL
HIV-1/106-Ala
  EC50: 0.15 µg/mL (≈ 0.362 µM)
HIV-1/100-Ile
  EC50: 0.34 µg/mL (≈ 0.821 µM)
HIV-1/181-Cys
  EC50: 0.14 µg/mL (≈ 0.338 µM)
HIV-1/Lys-138
  EC50: 0.43 µg/mL (≈ 1.04 µM)
In vitro
  CC50: 5.4 µg/mL (≈ 13 µM)

## Cc1sccc1C(=S)Nc1ccc(Cl)c(C(=O)OC(C(C)C)C(C)C)c1 [Compound 21]
HIV-1/103-Asn
  EC50: 0.61 µg/mL (≈ 1.49 µM)
HIV-1(IIIB)
  EC50: 0.008 µg/mL (≈ 0.0195 µM)
HIV-1/188-Leu
  EC50: > 2 µg/mL
HIV-1/106-Ala
  EC50: 0.23 µg/mL (≈ 0.561 µM)
HIV-1/100-Ile
  EC50: 0.3 µg/mL (≈ 0.732 µM)
HIV-1/181-Cys
  EC50: 0.17 µg/mL (≈ 0.415 µM)
HIV-1/Lys-138
  EC50: 0.11 µg/mL (≈ 0.268 µM)
In vitro
  CC50: 6 µg/mL (≈ 14.6 µM)

## CC1=C(C(=O)Nc2ccc(Cl)c(C(=O)OC(C(C)C)C(C)C)c2)SCCO1 [Compound 22]
HIV-1/103-Asn
  EC50: 0.65 µg/mL (≈ 1.58 µM)
HIV-1(IIIB)
  EC50: 0.08 µg/mL (≈ 0.194 µM)
HIV-1/188-Leu
  EC50: > 2 µg/mL
HIV-1/106-Ala
  EC50: 0.26 µg/mL (≈ 0.631 µM)
HIV-1/100-Ile
  EC50: 0.48 µg/mL (≈ 1.17 µM)
HIV-1/181-Cys
  EC50: 0.18 µg/mL (≈ 0.437 µM)
HIV-1/Lys-138
  EC50: 0.55 µg/mL (≈ 1.34 µM)
In vitro
  CC50: 5.8 µg/mL (≈ 14.1 µM)

## Cc1sccc1C(=O)Nc1ccc(Cl)c(C(=O)OC2CCCCC2)c1 [Compound 23]
HIV-1/103-Asn
  EC50: ≥ 2 µg/mL
HIV-1(IIIB)
  Antiviral Activity of Comparative Compounds EC50, WT: 0.03 µg/mL
HIV-1/188-Leu
  EC50: > 2 µg/mL
HIV-1/106-Ala
  Antiviral Activity of Comparative Compounds EC50, 106-Ala: 0.22 µg/mL
HIV-1/100-Ile
  Antiviral Activity of Comparative Compounds EC50, 100-Ile: 0.7 µg/mL
HIV-1/181-Cys
  Antiviral Activity of Comparative Compounds EC50, 181-Cys: 0.27 µg/mL
HIV-1/Lys-138
  Antiviral Activity of Comparative Compounds EC50, 138-Lys: 0.73 µg/mL
In vitro
  CC50: 5.8 µg/mL (≈ 15.3 µM)

## CC1=C(C(=O)Nc2ccc(Cl)c(C=NOC(C)(C)C)c2)CCCO1 [Compound 24]
HIV-1/103-Asn
  EC50: 0.6 µg/mL (≈ 1.71 µM)
HIV-1(IIIB)
  EC50: 0.13 µg/mL (≈ 0.371 µM)
HIV-1/188-Leu
  EC50: > 2 µg/mL
HIV-1/106-Ala
  EC50: 0.5 µg/mL (≈ 1.43 µM)
HIV-1/100-Ile
  EC50: 0.48 µg/mL (≈ 1.37 µM)
HIV-1/181-Cys
  EC50: 0.33 µg/mL (≈ 0.941 µM)
HIV-1/Lys-138
  EC50: 0.5 µg/mL (≈ 1.43 µM)
In vitro
  CC50: 9.7 µg/mL (≈ 27.6 µM)

## C=C(Cl)COc1cc(NC(=S)c2ccsc2C)ccc1C#N [Compound 25]
HIV-1/103-Asn
  EC50: 0.4 µg/mL (≈ 1.15 µM)
HIV-1(IIIB)
  EC50: 0.03 µg/mL (≈ 0.086 µM)
HIV-1/188-Leu
  EC50: > 2 µg/mL
HIV-1/106-Ala
  EC50: 0.2 µg/mL (≈ 0.573 µM)
HIV-1/100-Ile
  EC50: 0.2 µg/mL (≈ 0.573 µM)
HIV-1/181-Cys
  EC50: 0.44 µg/mL (≈ 1.26 µM)
HIV-1/Lys-138
  EC50: 0.13 µg/mL (≈ 0.373 µM)
In vitro
  CC50: 3.3 µg/mL (≈ 9.46 µM)

## Cc1occc1C(=S)Nc1ccc(Cl)c(OC2CCCCC2)c1 [Compound 26]
HIV-1/103-Asn
  EC50: 0.33 µg/mL (≈ 0.943 µM)
HIV-1(IIIB)
  EC50: 0.033 µg/mL (≈ 0.0943 µM)
HIV-1/188-Leu
  EC50: > 2 µg/mL
HIV-1/106-Ala
  EC50: 0.09 µg/mL (≈ 0.257 µM)
HIV-1/100-Ile
  EC50: 0.33 µg/mL (≈ 0.943 µM)
HIV-1/181-Cys
  EC50: ≥ 2 µg/mL
HIV-1/Lys-138
  EC50: 0.5 µg/mL (≈ 1.43 µM)
In vitro
  CC50: 5.3 µg/mL (≈ 15.1 µM)

Reference: patent publication US5696151A, “Compounds useful for the inhibition of the replication of HIV-1 and HIV-1 mutants” (priority 1995, dated 1997)
